“And” between values parts separate entries of the source, which are not always exact repeats. Equal entries are not always repeated. Toxic doses and inconclusive results are not listed. Cut-off read from the data, not from the text of the source: active = T/C of 150% or more; inactive = T/C below 125%.
System: L1210 leukemia ip in BDF1 mice, survival T/C
Experiment: NCI In Vivo Anticancer Drug Screen. Data for tumor model L1210 Leukemia (intraperitoneal) in B6D2F1 (BDF1) mice
Conditions: endpoint: mean survival time, higher = longer survival
Method in brief: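 Each compound was tested against a transplantable tumor grown in mice. The endpoint was survival, with treated animals benchmarked against vehicle controls as a simple ratio.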

[1] = dose: 100.0 mg/kg/injection, schedule: Q01DX009 (ip), vehicle: Klucel (hydroxypropylcellulose) (HPC)
[2] = dose: 200.0 mg/kg/injection, schedule: Q01DX009 (ip), vehicle: Klucel (hydroxypropylcellulose) (HPC)
[3] = dose: 400.0 mg/kg/injection, schedule: Q01DX009 (ip), vehicle: Klucel (hydroxypropylcellulose) (HPC)
[4] = dose: 100.0 mg/kg/injection, schedule: Q01DX001 (ip), vehicle: saline with Tween-80
[5] = dose: 200.0 mg/kg/injection, schedule: Q01DX001 (ip), vehicle: saline with Tween-80
[6] = dose: 400.0 mg/kg/injection, schedule: Q01DX001 (ip), vehicle: saline with Tween-80
[7] = dose: 100.0 mg/kg/injection, schedule: Q04DX003 (ip), vehicle: saline
[8] = dose: 200.0 mg/kg/injection, schedule: Q04DX003 (ip), vehicle: saline
[9] = dose: 400.0 mg/kg/injection, schedule: Q04DX003 (ip), vehicle: saline

Measured: T/C

Nc1ncnc2nc(-c3cccc(OCCCOc4ccccc4)c3)[nH]c12
inactive: dose: 75.0 mg/kg/injection, schedule: Q01DX001 (ip), vehicle: gum acacia 95 % of control | dose: 150.0 mg/kg/injection, schedule: Q01DX001 (ip), vehicle: gum acacia 93 % of control | dose: 300.0 mg/kg/injection, schedule: Q01DX001 (ip), vehicle: gum acacia 91 % of control

CC(=O)c1cc(S(=O)(=O)c2cc(C(C)=O)c(O)cc2OCc2ccccc2)c(OCc2ccccc2)cc1O
inactive: dose: 100.0 mg/kg/injection, schedule: Q04DX002 (ip), vehicle: carboxymethylcellulose (CMC) 103 % of control | dose: 200.0 mg/kg/injection, schedule: Q04DX002 (ip), vehicle: carboxymethylcellulose (CMC) 92 % of control | dose: 400.0 mg/kg/injection, schedule: Q04DX002 (ip), vehicle: carboxymethylcellulose (CMC) 88 % of control

Cc1ccc(CNC(=O)NC(C)(C)C)c(C)c1
inactive: [1] 97 % of control | [2] 104 % of control | [3] 92 % of control

CCC1=C(C)C(=O)Nc2c3ncnc-3ncn2C1O (stereo not given)
inactive: [4] 100 % of control | [5] 105 % of control | [6] 103 % of control

O=C(N/N=C/c1[nH]c(=S)[nH]c(=O)c1Cc1ccc(Cl)cc1)c1ccccc1
inactive: [4] 96 % of control | [5] 92 % of control | [6] 123 % of control

CC(=O)OCC(C)OC(C)=O (stereo not given)
inactive: dose: 100.0 mg/kg/injection, schedule: Q01DX009 (ip), vehicle: saline 98 % of control | [7] 106 % of control | dose: 200.0 mg/kg/injection, schedule: Q01DX009 (ip), vehicle: saline 95 % of control | [8] 97 % of control | dose: 400.0 mg/kg/injection, schedule: Q01DX009 (ip), vehicle: saline 92 % of control | [9] 97 % of control

Cc1c(Cl)cccc1NC(=O)c1ccccc1Cl
inactive: [1] 94 % of control | [7] 122 % of control | [2] 94 % of control | [8] 108 % of control | [3] 95 % of control | [9] 108 % of control

CN(C)/N=N/c1nc[nH]c1C(=O)NCCc1ccccc1
inactive: dose: 100.0 mg/kg/injection, schedule: Q01DX001 (ip), vehicle: other 108 % of control | dose: 200.0 mg/kg/injection, schedule: Q01DX001 (ip), vehicle: other 108 % of control

CCOc1ccc(CC(=O)Nc2cc([N+](=O)[O-])ccc2NCCN(CC)CC)cc1
inactive: dose: 25.0 mg/kg/injection, schedule: Q04DX003 (ip), vehicle: other 97 % of control | dose: 50.0 mg/kg/injection, schedule: Q04DX003 (ip), vehicle: other 97 % of control | dose: 100.0 mg/kg/injection, schedule: Q04DX003 (ip), vehicle: other 95 % of control and 111 % of control

CC(=O)c1cc2cc(Br)ccc2oc1=O
inactive: [1] 98 % of control | [2] 88 % of control | [3] 96 % of control

CC(=O)c1ccc2c(c1)Cc1ccccc1-2
inactive: dose: 25.0 mg/kg/injection, schedule: Q04DX003 (ip), vehicle: saline 105 % of control | dose: 50.0 mg/kg/injection, schedule: Q04DX003 (ip), vehicle: saline 95 % of control | dose: 100.0 mg/kg/injection, schedule: Q01DX001 (ip), vehicle: saline 90 % of control | [7] 101 % of control | dose: 200.0 mg/kg/injection, schedule: Q01DX001 (ip), vehicle: saline 90 % of control | [8] 96 % of control | dose: 400.0 mg/kg/injection, schedule: Q01DX001 (ip), vehicle: saline 90 % of control | [9] 91 % of control

O=C(O)CC1CCCCC1c1ccccc1 (stereo not given)
inactive: [1] 98 % of control | dose: 100.0 mg/kg/injection, schedule: Q04DX003 (ip), vehicle: Klucel (hydroxypropylcellulose) (HPC) 96 % of control | [2] 100 % of control | dose: 200.0 mg/kg/injection, schedule: Q04DX003 (ip), vehicle: Klucel (hydroxypropylcellulose) (HPC) 106 % of control | [3] 87 % of control | dose: 400.0 mg/kg/injection, schedule: Q04DX003 (ip), vehicle: Klucel (hydroxypropylcellulose) (HPC) 95 % of control

COC(=O)CCC(C(=O)CN1C(=O)c2ccccc2C1=O)N1C(=O)c2ccccc2C1=O (stereo not given)
inactive: dose: 100.0 mg/kg/injection, schedule: Q04DX003 (ip), vehicle: saline with Tween-80 96 % of control | dose: 200.0 mg/kg/injection, schedule: Q04DX003 (ip), vehicle: saline with Tween-80 92 % of control | dose: 400.0 mg/kg/injection, schedule: Q04DX003 (ip), vehicle: saline with Tween-80 92 % of control

CN(CCC#N)c1ccc(C=C(C#N)C#N)cc1
inactive: [1] 92 % of control | [2] 95 % of control | [3] 97 % of control

— PubChem BioAssay AID248 (DTP/NCI, 2004)
